Experimental data taken from ChEMBL document CHEMBL1201862, “PubChem BioAssay data set” (2004).
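Step 1: Grow cells in 96-well plates. Step 2: Expose to compound for 48 hours at 5 concentrations. Step 3: Interpolate endpoints linearly; if unreached, use highest concentration. Here, GI50 denotes the concentration required for 50% inhibition of growth.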 Active and inactive are the calls of the source. Rule as the data show it: active = GI50 up to about 1.1 µM and inactive = higher.

What was measured:
Assay in all cases: inhibition of tumour cell growth, NCI panel, 48 h
DMS-273 = tested on: DMS-273
M19-MEL = tested on: M19-MEL
XF498 = tested on: XF498
SNB-78 = tested on: SNB-78
DLD-1 = tested on: DLD-1
DMS-114 = tested on: DMS-114
LXFL 529 = tested on: LXFL 529
KM-20L2 = tested on: KM-20L2
RXF 631 = tested on: RXF 631

Row | SMILES | GI50 (DMS-273) | GI50 (M19-MEL) | GI50 (XF498) | GI50 (SNB-78) | GI50 (DLD-1) | GI50 (DMS-114) | GI50 (LXFL 529) | GI50 (KM-20L2) | GI50 (RXF 631)
1 | CCC1CCc2c(OC)ccc(OCC(=O)O)c2C1=O (stereo unspecified) | > 100 µM (inactive) | > 100 µM (inactive) | > 100 µM (inactive) | > 100 µM (inactive) | > 100 µM (inactive) | > 100 µM (inactive) | > 100 µM (inactive) |  | 
2 | CCOC(=N)CC(=O)Nc1ccc(Cl)cc1 | > 100 µM (inactive) | > 100 µM (inactive) | > 100 µM (inactive) | > 100 µM (inactive) | > 100 µM (inactive) |  | > 100 µM (inactive) | > 100 µM (inactive) | 
3 | O=C(/C=C/c1c(O)ccc2ccccc12)c1ccccc1 | > 100 µM (inactive) | 29.4 µM (inactive) | > 100 µM (inactive) | > 100 µM (inactive) | 85.7 µM (inactive) | > 100 µM (inactive) | > 100 µM (inactive) | > 100 µM (inactive) | > 100 µM (inactive)
4 | Cc1cc2c(c(N)c1C)C(=O)c1ccccc1C2=O | 24.4 µM (inactive) | 65.5 µM (inactive) |  | > 100 µM (inactive) | 62.7 µM (inactive) | 32.1 µM (inactive) | 28.8 µM (inactive) | 25 µM (inactive) | 
5 | Cc1cc2cc(Cl)ccc2nc1C(=O)c1ccccc1 | > 100 µM (inactive) | > 100 µM (inactive) | > 100 µM (inactive) | > 100 µM (inactive) | > 100 µM (inactive) | > 100 µM (inactive) | > 100 µM (inactive) | > 100 µM (inactive) | > 100 µM (inactive)
6 | O=C(Nc1ccc(Cl)cc1C(=O)O)c1ccc([N+](=O)[O-])cc1 | 27.7 µM (inactive) | 21.4 µM (inactive) | 24.9 µM (inactive) | 22.4 µM (inactive) | 7.06 µM (inactive) | 9.08 µM (inactive) | 15.5 µM (inactive) | 21.8 µM (inactive) | 30.1 µM (inactive)
7 | COc1cc(C2C(Cl)C(=O)N2NC(=O)Cc2ccccc2)cc(Br)c1O (stereo unspecified) | > 100 µM (inactive) | > 100 µM (inactive) | > 100 µM (inactive) | > 100 µM (inactive) | 86.9 µM (inactive) | 45 µM (inactive) | 86.3 µM (inactive) | > 100 µM (inactive) | 
8 | Cc1noc(C)c1CCCOC1COc2ccccc2OCCOCCOc2ccccc2OC1 | > 100 µM (inactive) | > 100 µM (inactive) | > 100 µM (inactive) | > 100 µM (inactive) | > 100 µM (inactive) | > 100 µM (inactive) | > 100 µM (inactive) | > 100 µM (inactive) | 
9 | O=C(O)CCC1CCc2cccc3occ1c23 (stereo unspecified) | > 100 µM (inactive) | > 100 µM (inactive) |  | > 100 µM (inactive) | > 100 µM (inactive) | > 100 µM (inactive) | > 100 µM (inactive) | > 100 µM (inactive) | > 100 µM (inactive)
10 | O=C(O)CCC(=O)N1C/C(=C\c2ccccc2)C(=O)/C(=C/c2ccccc2)C1 | 2.16 µM (inactive) | 1.75 µM (inactive) | 2.7 µM (inactive) | 7.24 µM (inactive) | 2.32 µM (inactive) | 2.18 µM (inactive) | 2.67 µM (inactive) | 2.92 µM (inactive) | 3.66 µM (inactive)
11 | C/C(=N\NC(=N)N)C(CN(C)C)C(c1ccccc1)c1c(O)c2ccccc2oc1=O (stereo unspecified) | > 100 µM (inactive) | > 100 µM (inactive) | > 100 µM (inactive) | > 100 µM (inactive) | > 100 µM (inactive) | > 100 µM (inactive) | > 100 µM (inactive) | > 100 µM (inactive) | 
12 | CC(C)c1ccc(/C=C(\NC(=O)c2ccccc2)c2nc3ccccc3[nH]2)cc1 | 37.9 µM (inactive) | 33.3 µM (inactive) | 55.3 µM (inactive) | 42.9 µM (inactive) | 30.3 µM (inactive) | 25.3 µM (inactive) | 31.8 µM (inactive) | 58.1 µM (inactive) | 23.6 µM (inactive)
13 | BrCC[N+]12CCCN1CCC2 | 18.7 µM (inactive) | 16.9 µM (inactive) |  | 16.2 µM (inactive) | 4.38 µM (inactive) |  | 2.88 µM (inactive) | 20.6 µM (inactive) | 21.1 µM (inactive)
14 | COc1ccc(C(=O)N2c3ccccc3N(C)n3cccc3C2CC(=O)O)cc1 (stereo unspecified) | > 100 µM (inactive) | > 100 µM (inactive) |  | > 100 µM (inactive) | > 100 µM (inactive) | > 100 µM (inactive) | > 100 µM (inactive) | > 100 µM (inactive) | 
15 | COc1cc(/C=C/c2ccc(C)cc2)cc(OC)c1OC | 3.79 µM (inactive) | 9.98 µM (inactive) | 6.49 µM (inactive) | 2.14 µM (inactive) | 4.06 µM (inactive) | 5.9 µM (inactive) | 5.58 µM (inactive) | 2.09 µM (inactive) | 
16 | Nc1c(-c2nc3ccccc3s2)[n+]([O-])c2ccccc2[n+]1[O-] |  | 28 µM (inactive) |  | 63 µM (inactive) | 33 µM (inactive) | 34.2 µM (inactive) | 28.4 µM (inactive) | 48.2 µM (inactive) | 
17 | Cc1cc2c(C)nn(Cc3ccccc3)c2c(C(=O)O)c1C | > 100 µM (inactive) | > 100 µM (inactive) | > 100 µM (inactive) | > 100 µM (inactive) |  |  | > 100 µM (inactive) | > 100 µM (inactive) | > 100 µM (inactive)
18 | CCOC(=O)CC1=N/C(=N/c2cc(Cl)ccc2Cl)SC1 | > 100 µM (inactive) | > 100 µM (inactive) | > 100 µM (inactive) | > 100 µM (inactive) | 91.8 µM (inactive) | 38.5 µM (inactive) | > 100 µM (inactive) | > 100 µM (inactive) | 
19 | COc1ccc(C2=Nc3ccccc3NC(=O)C2)cc1 | 27.4 µM (inactive) | 48.3 µM (inactive) | 20.1 µM (inactive) | 25.2 µM (inactive) | 62.8 µM (inactive) | 20.7 µM (inactive) | > 100 µM (inactive) | 55.7 µM (inactive) | > 100 µM (inactive)
20 | Cc1ccc(NC(=O)C(=O)C2C(=O)NC(=O)NC2=O)cc1C | > 100 µM (inactive) | > 100 µM (inactive) | > 100 µM (inactive) | > 100 µM (inactive) | > 100 µM (inactive) |  | > 100 µM (inactive) | > 100 µM (inactive) | 
21 | O=C1C2c3[nH]c4ccccc4c3[C@@H]3CCCCCCCCCCC3C2C(=O)N1c1ccccc1 (stereo partly specified) | 27.3 µM (inactive) | 22.2 µM (inactive) |  | 8.53 µM (inactive) | 24.5 µM (inactive) | 16.9 µM (inactive) | 13.5 µM (inactive) |  | 12.6 µM (inactive)
22 | CCCC(=O)OC[n+]1ccc2c(C)c3[nH]c4ccccc4c3c(C)c2c1 | 0.101 µM (active) | > 100 µM (inactive) |  | 1.1 µM (active) |  | 0.641 µM (active) | 0.57 µM (active) | 0.478 µM (active) | 0.378 µM (active)
23 | CCOC(=O)Nn1c(C)cc(C(=O)OC)c1C | > 100 µM (inactive) | > 100 µM (inactive) | > 100 µM (inactive) | > 100 µM (inactive) | > 100 µM (inactive) | > 100 µM (inactive) | > 100 µM (inactive) | > 100 µM (inactive) | 
24 | COC[C@H](C)/N=C/N1CCc2ccccc2C1(Cc1ccccc1)Cc1ccccc1 |  |  | 12.3 µM (inactive) |  | 8.18 µM (inactive) |  | 11.8 µM (inactive) | 10.8 µM (inactive) | 13.5 µM (inactive)
25 | CC(=O)Nc1ccc(/C=c2\sc3nnc(-c4cccnc4)n3c2=O)cc1 | 25.1 µM (inactive) | 18.1 µM (inactive) |  | 34.4 µM (inactive) | 17.3 µM (inactive) | 17.9 µM (inactive) | 15.9 µM (inactive) | 17.5 µM (inactive) | 18.1 µM (inactive)
26 | c1ccc(C2C3=C(Nc4ncnn42)c2ccccc2C3)cc1 (stereo unspecified) | 12.1 µM (inactive) | 9.75 µM (inactive) | 15.4 µM (inactive) | > 100 µM (inactive) | 14.1 µM (inactive) | 7.1 µM (inactive) |  | 7.89 µM (inactive) | > 100 µM (inactive)
27 | CC(=O)OC1[C@H]2c3cc4c(cc3CN3CCC(=C[C@@H]1O)C23)OCO4 (stereo partly specified) | > 100 µM (inactive) | > 100 µM (inactive) |  | 54.2 µM (inactive) | > 100 µM (inactive) |  | 48.6 µM (inactive) | 77.8 µM (inactive) | 
28 | COc1ccc(/C=C/C(=O)c2c(-c3ccccc3)nn(C)c(=O)c2N2CCCCC2)cc1 | 15.9 µM (inactive) | 25.3 µM (inactive) |  |  | 16.1 µM (inactive) | 14.6 µM (inactive) | 16.6 µM (inactive) | 14.3 µM (inactive) | 23.5 µM (inactive)
29 | CCc1ccc(/N=C\c2cc(OC)c(OC)c(OC)c2)cc1 | > 100 µM (inactive) | > 100 µM (inactive) | > 100 µM (inactive) | > 100 µM (inactive) | 77.8 µM (inactive) | 40.4 µM (inactive) | 51.9 µM (inactive) | > 100 µM (inactive) | 
